For test [1], the target named is T1, His tagged full-length PTPN1 protein (Homo sapiens, UniProt P18031).
T1 construct: made in house
T1 sequence (P18031 with tags, fused parts or gaps): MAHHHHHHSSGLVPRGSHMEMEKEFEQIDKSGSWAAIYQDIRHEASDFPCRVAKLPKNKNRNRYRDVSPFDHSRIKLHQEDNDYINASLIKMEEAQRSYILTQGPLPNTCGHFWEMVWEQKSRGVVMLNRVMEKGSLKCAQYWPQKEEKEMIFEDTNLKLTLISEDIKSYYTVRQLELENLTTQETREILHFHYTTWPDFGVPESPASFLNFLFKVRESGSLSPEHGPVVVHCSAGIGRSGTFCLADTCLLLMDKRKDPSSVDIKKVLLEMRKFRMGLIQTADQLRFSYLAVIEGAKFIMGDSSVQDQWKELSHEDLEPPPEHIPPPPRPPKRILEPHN
Put plainly: Mobility shift assay (MSA) used to determine potency of PTPN1 inhibitors. As to conditions: enzyme 0.5 nM, substrate 2 μM. In kind it is biochemical. An outline of the steps: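 Full-length His-tagged human PTPN1 (0.5 nM) was preincubated 10 min at room temperature with compound (12-point, 1:3 dilution) in HEPES pH 7.5 buffer with EGTA, EDTA, Tween 20 and DTT. A 2 μM fluorescent phospho-insulin receptor peptide was then added for 10 min before quench. Mobility-shift % conversion gave % inhibition and IC50.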

Test [2] concerns B16F10 mouse melanoma cells. Put plainly: B16F10 IFNγ-induced cellular growth inhibition assay. The format is cell-based. The note with it: B16-F10, with 0.5 ng/mL IFNγ, read-out: B16F10 GI IC50. The gist of the method:
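B16F10 cells grown in DMEM+10% FBS, with or without 0.5 ng/mL final mouse IFNγ, and dosed in triplicate at 100 μM to 0.001 μM final (0.1% DMSO). Confluence imaged every 6 h for 5 days; percent growth inhibition versus DMSO/with-IFNγ control taken once DMSO/no-IFNγ wells exceeded 95% confluence, giving IC50.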

Test [3] has as its target T2, His tagged PTPN2 (TC45) protein (Homo sapiens, UniProt P17706).
T2 construct: made in house
T2 sequence (P17706 with tags, fused parts or gaps isoform P17706-2): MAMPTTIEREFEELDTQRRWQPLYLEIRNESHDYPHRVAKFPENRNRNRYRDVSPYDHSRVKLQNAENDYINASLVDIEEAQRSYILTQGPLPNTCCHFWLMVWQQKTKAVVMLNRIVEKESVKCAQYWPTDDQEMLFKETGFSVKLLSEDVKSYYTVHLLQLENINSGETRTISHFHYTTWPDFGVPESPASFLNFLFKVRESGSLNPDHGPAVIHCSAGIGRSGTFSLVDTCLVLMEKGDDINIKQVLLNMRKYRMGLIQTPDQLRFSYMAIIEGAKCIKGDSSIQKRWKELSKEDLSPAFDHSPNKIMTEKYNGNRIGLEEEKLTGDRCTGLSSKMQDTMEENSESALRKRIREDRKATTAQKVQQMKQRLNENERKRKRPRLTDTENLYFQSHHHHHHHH
Put plainly: Mobility shift assay used to determine potency of PTPN2 inhibitors. In kind it is biochemical. As to conditions: enzyme 0.5 nM, substrate 2 μM; read-out: PTPN2 MSA IC50. The gist of the method: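 Microfluidic mobility-shift read-out (488/530 nm) of dephosphorylation of an OG488-tagged phosphotyrosine insulin receptor peptide, 2 μM, over 10 min at room temperature, after 10 min compound preincubation with 0.5 nM enzyme. Buffer: 50 mM HEPES pH 7.5, EGTA, EDTA, Tween 20, DTT. IC50 derived from % inhibition over 12-point 1:3 series.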

With `O=C1CN(c2c(O)cc3c(c2F)CC(NCCC2CCC2)CC3)S(=O)(=O)N1` (stereo not drawn) [Compound 185, 5-{7-[(2-cyclobutylethyl)amino]-1-fluoro-3-hydroxy-5,6,7,8-tetrahydronaphthalen-2-yl}-1λ^6,2,5-thiadiazolidine-1,1,3-trione], the IC50 (as a rule, the concentration at which inhibition is half-maximal) in test [1] is 1 to 10 nM; in test [2] it was less than 1000 nM; in test [3], 1 to 10 nM.

Take `COCCOC1CCc2cc(O)c(N3CC(=O)NS3(=O)=O)c(F)c2C1` (stereo not drawn) [Compound 106, 5-[1-fluoro-3-hydroxy-7-(2-methoxyethoxy)-5,6,7,8-tetrahydronaphthalen-2-yl]-1λ^6,2,5-thiadiazolidine-1,1,3-trione]: the IC50 in test [1] lay within 10 to 100 nM; in test [2], 10000 to 100000 nM; in test [3] it was 10 to 100 nM.

As to `O=C1CN(c2c(O)cc3c(c2F)CC(NCC[C@H]2C[C@@H](OC(F)(F)F)C2)CC3)S(=O)(=O)N1` (stereo partly drawn) [Compound 234, 5-[1-fluoro-3-hydroxy-7-({2-[(1s,3r)-3-(trifluoromethoxy)cyclobutyl]ethyl}amino)-5,6,7,8-tetrahydronaphthalen-2-yl]-1λ^6,2,5-thiadiazolidine-1,1,3-trione], the IC50 in test [1] was in the range of 1 to 10 nM; in test [2] it was 1000 to 10000 nM; in test [3], 10 to 100 nM.

`CC(C)CCN(CCC(C)C)CC1Cc2cc(O)c(N3CC(=O)NS3(=O)=O)c(F)c2C1` (stereo not drawn) [Compound 269, 5-(2-{[bis(3-methylbutyl)amino]methyl}-4-fluoro-6-hydroxy-2,3-dihydro-1H-inden-5-yl)-1λ^6,2,5-thiadiazolidine-1,1,3-trione]: the IC50 in test [1] lay within 1 to 10 nM; in test [2], 10000 to 100000 nM; in test [3], 1 to 10 nM.

For `O=C1CN(c2c(O)cc3c(c2F)CC(NCC(O)C2CC2)CC3)S(=O)(=O)N1` (stereo not drawn) [Compound 188, 5-{7-[(2-cyclopropyl-2-hydroxyethyl)amino]-1-fluoro-3-hydroxy-5,6,7,8-tetrahydronaphthalen-2-yl}-1λ^6,2,5-thiadiazolidine-1,1,3-trione], the IC50 in test [1] was 10 to 100 nM; in test [2], less than 1000 nM; in test [3], 10 to 100 nM.

For `O=C1CN(c2c(O)cc3c(c2F)CC(NCCC2CCCCC2)CC3)S(=O)(=O)N1` (stereo not drawn) [Compound 173, 5-{7-[(2-cyclohexylethyl)amino]-1-fluoro-3-hydroxy-5,6,7,8-tetrahydronaphthalen-2-yl}-1λ^6,2,5-thiadiazolidine-1,1,3-trione], the 50% inhibitory concentration (IC50) in test [1] is 1 to 10 nM; in test [2] it was less than 1000 nM; in test [3], 1 to 10 nM.

On to `O=C1CN(c2c(O)cc3c(c2F)CC(NCCCC(F)(F)F)CC3)S(=O)(=O)N1` (stereo not drawn) [Compound 120, 5-{1-fluoro-3-hydroxy-7-[(4,4,4-trifluorobutyl)amino]-5,6,7,8-tetrahydronaphthalen-2-yl}-1λ^6,2,5-thiadiazolidine-1,1,3-trione], for which the figures for the IC50 in test [1], in test [2] and in test [3] were 1 to 10 nM, less than 1000 nM and 1 to 10 nM, respectively.

Take `O=C1CN(c2c(O)cc3c(c2F)C[C@@H]([C@H]2CCN(S(=O)(=O)C4CC4)C2)CC3)S(=O)(=O)N1` (single isomer, unassigned) [Compound 139, 5-{(7RS)-7-[(3SR)-1-(cyclopropanesulfonyl)pyrrolidin-3-yl]-1-fluoro-3-hydroxy-5,6,7,8-tetrahydronaphthalen-2-yl}-1λ^6,2,5-thiadiazolidine-1,1,3-trione]: the half-maximal inhibitory concentration (IC50) in test [1] fell in the range of 10 to 100 nM; in test [2], 10000 to 100000 nM; in test [3] it was 1 to 10 nM.

As to `O=C1CN(c2c(O)cc3c(c2F)CC(NCCC(C(F)(F)F)C(F)(F)F)CC3)S(=O)(=O)N1` (stereo not drawn) [Compound 131, 5-(1-fluoro-3-hydroxy-7-{[4,4,4-trifluoro-3-(trifluoromethyl)butyl]amino}-5,6,7,8-tetrahydronaphthalen-2-yl)-1λ^6,2,5-thiadiazolidine-1,1,3-trione], the IC50 was 1 to 10 nM in test [1], less than 1000 nM in test [2] and 1 to 10 nM in test [3].

Consider `CCCC1(NNC(=O)c2ccccc2)CCc2cc(O)c(N3CC(=O)NS3(=O)=O)c(F)c2C1` (stereo not drawn) [Compound 241, N′-[8-fluoro-6-hydroxy-2-propyl-7-(1,1,4-trioxo-1λ^6,2,5-thiadiazolidin-2-yl)-1,2,3,4-tetrahydronaphthalen-2-yl]benzohydrazide], for which the IC50 was in the range of 10 to 100 nM in test [1], 10000 to 100000 nM in test [2] and 10 to 100 nM in test [3].

As for `O=C1CN(c2c(O)cc3c(c2F)CC(NCCOC(F)F)CC3)S(=O)(=O)N1` (stereo not drawn) [Compound 157, 5-(7-{[2-(difluoromethoxy)ethyl]amino}-1-fluoro-3-hydroxy-5,6,7,8-tetrahydronaphthalen-2-yl)-1λ^6,2,5-thiadiazolidine-1,1,3-trione], the IC50 was 10 to 100 nM in test [1], 1000 to 10000 nM in test [2] and 1 to 10 nM in test [3].

Consider `CC(C)CCCNC1CCc2cc(O)c(N3CC(=O)NS3(=O)=O)c(F)c2C1` (stereo not drawn) [Compound 129, 5-{1-fluoro-3-hydroxy-7-[(4-methylpentyl)amino]-5,6,7,8-tetrahydronaphthalen-2-yl}-1λ^6,2,5-thiadiazolidine-1,1,3-trione], for which the values for the IC50 in test [1], in test [2] and in test [3] were 1 to 10 nM, less than 1000 nM and 1 to 10 nM, respectively.

Turning to `O=C1CN(c2c(O)cc3c(c2F)CC(OCC2CC(F)(F)C2)CC3)S(=O)(=O)N1` (stereo not drawn) [Compound 119, 5-{7-[(3,3-difluorocyclobutyl)methoxy]-1-fluoro-3-hydroxy-5,6,7,8-tetrahydronaphthalen-2-yl}-1λ^6,2,5-thiadiazolidine-1,1,3-trione], the IC50 in test [1] was in the range of 1 to 10 nM; in test [2], 1000 to 10000 nM; in test [3], 1 to 10 nM.

On to `O=C1CN(c2c(O)cc3c(c2F)CC(NCCO)CC3)S(=O)(=O)N1` (stereo not drawn) [Compound 180, 5-{1-fluoro-3-hydroxy-7-[(2-hydroxyethyl)amino]-5,6,7,8-tetrahydronaphthalen-2-yl}-1λ^6,2,5-thiadiazolidine-1,1,3-trione], for which the results for the IC50 in test [1], in test [2] and in test [3] were greater than 100 nM, 1000 to 10000 nM and 10 to 100 nM, respectively.

Turning to `CCCC1(N)CCc2cc(O)c(N3CC(=O)NS3(=O)=O)c(F)c2C1` (stereo not drawn) [Compound 255, 5-(7-amino-1-fluoro-3-hydroxy-7-propyl-5,6,7,8-tetrahydronaphthalen-2-yl)-1λ^6,2,5-thiadiazolidine-1,1,3-trione], the values for the IC50 in test [1], in test [2] and in test [3] were 10 to 100 nM, 1000 to 10000 nM and greater than 100 nM, respectively.

As for `CCCCNC1CCc2cc(O)c(N3CC(=O)NS3(=O)=O)c(F)c2C1` (stereo not drawn) [Compound 175, 5-[7-(butylamino)-1-fluoro-3-hydroxy-5,6,7,8-tetrahydronaphthalen-2-yl]-1λ^6,2,5-thiadiazolidine-1,1,3-trione], the IC50 in test [1] is 10 to 100 nM; in test [2] it was less than 1000 nM; in test [3], 1 to 10 nM.

Consider `CC(C)CCNC[C@H]1Cc2cc(O)c(N3CC(=O)NS3(=O)=O)c(F)c2C1` (single isomer, unassigned) [Compound 292], for which the IC50 in test [1] fell in the range of 10 to 100 nM; in test [2], 1000 to 10000 nM; in test [3], 10 to 100 nM.

As for `CC1(C)CC1CCCN1CCc2cc(O)c(N3CC(=O)NS3(=O)=O)c(F)c2C1` (stereo not drawn) [Compound 288, 5-{2-[3-(2,2-dimethylcyclopropyl)propyl]-8-fluoro-6-hydroxy-1,2,3,4-tetrahydroisoquinolin-7-yl}-1λ^6,2,5-thiadiazolidine-1,1,3-trione], the values for the IC50 in test [1], in test [2] and in test [3] were 1 to 10 nM, 1000 to 10000 nM and 10 to 100 nM, respectively.

In the case of `CO[C@H]1CCc2cc(O)c(N3CC(=O)NS3(=O)=O)c(F)c2C1` (single isomer, unassigned) [Compound 109], the results for the IC50 in test [1], in test [2] and in test [3] were 10 to 100 nM, 10000 to 100000 nM and 10 to 100 nM, respectively.

Regarding `CC(C)CCN(C)C1CCc2cc(O)c(N3CC(=O)NS3(=O)=O)c(F)c2C1` (stereo not drawn) [Compound 128, 5-{1-fluoro-3-hydroxy-7-[methyl(3-methylbutyl)amino]-5,6,7,8-tetrahydronaphthalen-2-yl}-1λ^6,2,5-thiadiazolidine-1,1,3-trione], the IC50 in test [1] was 1 to 10 nM; in test [2], 1000 to 10000 nM; in test [3], 1 to 10 nM.

For the origin of these results see patent publication US10851073B2, “Protein tyrosine phosphatase inhibitors and methods of use thereof” (Calico Life Sciences LLC, priority 2019, dated 2020).
